Results from ChEMBL document CHEMBL1201862, “PubChem BioAssay data set” (2004).
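Each compound was tested at five concentrations against cells in 96-well plates for 48 hours. GI50 marks 50% less growth.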 Calls of active or inactive are those of the source. Cut-off read from the data, not from the text of the source: active = GI50 up to about 1.1 µM and inactive = higher.

How the values were obtained:
Experiment in all cases: NCI-60 cell line screen, 48 h
786-0 = test system: 786-0
CAKI-1 = test system: CAKI-1
MDA-MB-231 = test system: MDA-MB-231
MOLT-4 = test system: MOLT-4
NCI-H226 = test system: NCI-H226
NCI-H23 = test system: NCI-H23
NCI-H460 = test system: NCI-H460
OVCAR-3 = test system: OVCAR-3
OVCAR-5 = test system: OVCAR-5
PC-3 = test system: PC-3
RPMI-8226 = test system: RPMI-8226
SF-539 = test system: SF-539
SNB-75 = test system: SNB-75
SW-620 = test system: SW-620
TK-10 = test system: TK-10
UACC-257 = test system: UACC-257
UACC-62 = test system: UACC-62
UO-31 = test system: UO-31
HOP-62 = test system: HOP-62
LOX IMVI = test system: LOX IMVI

Measured: GI50

COC(=O)CC(=O)Nc1sccc1S(=O)(=O)c1ccccc1
inactive: 786-0 50.5 µM | CAKI-1 > 100 µM | MDA-MB-231 > 100 µM | MOLT-4 > 100 µM | NCI-H226 40.3 µM | NCI-H23 > 100 µM | NCI-H460 > 100 µM | OVCAR-3 16.4 µM | OVCAR-5 > 100 µM | PC-3 34.4 µM | RPMI-8226 > 100 µM | SF-539 35.1 µM | SNB-75 > 100 µM | SW-620 > 100 µM | TK-10 65.9 µM | UACC-257 67.1 µM | UACC-62 49.1 µM | UO-31 40.5 µM

Cc1cccc(CNNC(=O)c2cc[n+]([BH2-]C#N)cc2)c1
inactive: 786-0 30.7 µM | CAKI-1 32.4 µM | HOP-62 38 µM | LOX IMVI 20.1 µM | MDA-MB-231 20.6 µM | MOLT-4 28.2 µM | NCI-H226 23.9 µM | NCI-H23 18.6 µM | NCI-H460 36.5 µM | OVCAR-3 32.1 µM | OVCAR-5 37.5 µM | PC-3 31.6 µM | RPMI-8226 24.8 µM | SNB-75 21.7 µM | SW-620 34 µM | TK-10 53.7 µM | UACC-257 37.6 µM | UACC-62 62.7 µM | UO-31 48.1 µM

CCCCC(=O)N/S(=N/C(=O)c1ccccc1)C(Cl)(Cl)Cl (stereo not drawn)
inactive: 786-0 > 100 µM | HOP-62 > 100 µM | LOX IMVI > 100 µM | MDA-MB-231 > 100 µM | MOLT-4 > 100 µM | NCI-H226 > 100 µM | NCI-H23 > 100 µM | NCI-H460 > 100 µM | OVCAR-3 > 100 µM | OVCAR-5 > 100 µM | PC-3 > 100 µM | RPMI-8226 > 100 µM | SF-539 > 100 µM | SNB-75 > 100 µM | SW-620 > 100 µM | TK-10 > 100 µM | UACC-257 > 100 µM | UACC-62 > 100 µM | UO-31 > 100 µM

Cc1ccc(NC(=O)c2cccc(OP(=O)(Nc3ccc(C)cc3)Nc3ccc(C)cc3)c2)cc1
inactive: 786-0 19.9 µM | CAKI-1 12.8 µM | HOP-62 28.7 µM | LOX IMVI 10.9 µM | MDA-MB-231 3.32 µM | MOLT-4 2.61 µM | NCI-H226 8.04 µM | NCI-H23 10.9 µM | NCI-H460 3.88 µM | OVCAR-3 5.83 µM | OVCAR-5 38.5 µM | PC-3 7.78 µM | SF-539 23.3 µM | SNB-75 4.14 µM | SW-620 8.18 µM | TK-10 7.52 µM | UACC-257 11.9 µM | UACC-62 20.3 µM | UO-31 4.53 µM

CN(NC(=O)c1cccs1)C1=NCCN1
inactive: 786-0 > 100 µM | HOP-62 > 100 µM | LOX IMVI > 100 µM | MDA-MB-231 > 100 µM | MOLT-4 > 100 µM | NCI-H226 > 100 µM | NCI-H23 > 100 µM | NCI-H460 > 100 µM | OVCAR-3 > 100 µM | OVCAR-5 > 100 µM | PC-3 > 100 µM | RPMI-8226 > 100 µM | SF-539 > 100 µM | SNB-75 > 100 µM | SW-620 > 100 µM | TK-10 23.8 µM | UACC-257 > 100 µM | UACC-62 > 100 µM | UO-31 > 100 µM

CC(=O)Oc1cc2oc(=O)cc(C)c2cc1OC(C)=O
inactive: 786-0 61 µM | HOP-62 51.8 µM | LOX IMVI 40.2 µM | MDA-MB-231 58.7 µM | MOLT-4 74.8 µM | NCI-H226 40.2 µM | NCI-H23 75.2 µM | OVCAR-3 33.1 µM | OVCAR-5 > 100 µM | PC-3 84.9 µM | RPMI-8226 45.7 µM | SF-539 31.3 µM | SNB-75 48.4 µM | SW-620 46.2 µM | TK-10 44.5 µM | UACC-257 48.9 µM | UACC-62 58.2 µM | UO-31 24.6 µM

COc1ccc(N2C(=O)c3cccnc3S2(=O)=O)cc1
inactive: 786-0 > 100 µM | CAKI-1 > 100 µM | HOP-62 > 100 µM | MDA-MB-231 > 100 µM | MOLT-4 > 100 µM | NCI-H226 > 100 µM | NCI-H23 > 100 µM | NCI-H460 > 100 µM | OVCAR-3 > 100 µM | OVCAR-5 > 100 µM | PC-3 > 100 µM | RPMI-8226 > 100 µM | SF-539 > 100 µM | SNB-75 > 100 µM | SW-620 > 100 µM | UACC-257 > 100 µM | UACC-62 > 100 µM | UO-31 > 100 µM

O=C(O)c1ccc([N+](=O)[O-])c2cc3cnccc3nc12
inactive: CAKI-1 > 10 µM | HOP-62 31.6 µM | MDA-MB-231 19.4 µM | MOLT-4 3.91 µM | NCI-H226 30.3 µM | NCI-H23 24.6 µM | NCI-H460 38.2 µM | OVCAR-3 21.2 µM | OVCAR-5 33.7 µM | PC-3 15.5 µM | RPMI-8226 39.7 µM | SNB-75 19.3 µM | UACC-62 12.4 µM | UO-31 23.3 µM

NC1=NC(NCC2(CO)CCC2)=CC(OCC2(CO)CCC2)N1 (stereo not drawn)
inactive: 786-0 > 100 µM | CAKI-1 > 100 µM | HOP-62 > 100 µM | LOX IMVI > 100 µM | MDA-MB-231 > 100 µM | MOLT-4 65.9 µM | NCI-H226 > 100 µM | NCI-H23 26.2 µM | NCI-H460 > 100 µM | OVCAR-3 > 100 µM | OVCAR-5 > 100 µM | PC-3 > 100 µM | RPMI-8226 > 100 µM | SNB-75 > 100 µM | SW-620 > 100 µM | UACC-257 > 100 µM | UACC-62 > 100 µM | UO-31 > 100 µM

Cc1nnc2n(c1=O)CCN2C
inactive: 786-0 > 100 µM | HOP-62 > 100 µM | LOX IMVI > 100 µM | MDA-MB-231 > 100 µM | MOLT-4 > 100 µM | NCI-H226 > 100 µM | NCI-H23 > 100 µM | NCI-H460 > 100 µM | OVCAR-3 > 100 µM | OVCAR-5 > 100 µM | PC-3 > 100 µM | RPMI-8226 > 100 µM | SF-539 > 100 µM | SNB-75 89.7 µM | SW-620 > 100 µM | TK-10 > 100 µM | UACC-62 > 100 µM | UO-31 > 100 µM

CCOc1ccc(/N=N/C2C(=O)N(C(=O)CC(=O)Nc3ccc(C)cc3)N=C2C)cc1 (stereo not drawn)
inactive: 786-0 16 µM | CAKI-1 26.5 µM | HOP-62 16 µM | LOX IMVI 14.6 µM | MDA-MB-231 17 µM | MOLT-4 14.7 µM | NCI-H226 26.3 µM | NCI-H23 26.5 µM | NCI-H460 14.8 µM | OVCAR-3 20.6 µM | OVCAR-5 > 100 µM | PC-3 > 100 µM | SF-539 14.8 µM | SNB-75 8.02 µM | SW-620 21.6 µM | TK-10 24.8 µM | UACC-257 > 100 µM | UACC-62 16.7 µM | UO-31 29.4 µM

N=C1CCCC1C(=S)SCCC(N)=O (stereo not drawn)
inactive: 786-0 > 100 µM | CAKI-1 > 100 µM | HOP-62 > 100 µM | MDA-MB-231 > 100 µM | MOLT-4 > 100 µM | NCI-H226 > 100 µM | NCI-H23 > 100 µM | NCI-H460 > 100 µM | OVCAR-3 > 100 µM | OVCAR-5 > 100 µM | PC-3 > 100 µM | RPMI-8226 > 100 µM | SF-539 > 100 µM | SNB-75 61.4 µM | SW-620 > 100 µM | TK-10 > 100 µM | UACC-257 > 100 µM | UACC-62 > 100 µM | UO-31 > 100 µM

O=c1c(Cl)c(Cl)c(=O)c2sc3cc(Cl)ccc3[nH]c1=2
inactive: 786-0 > 100 µM | CAKI-1 > 100 µM | HOP-62 > 100 µM | MDA-MB-231 2.04 µM | MOLT-4 2.47 µM | NCI-H226 27.3 µM | NCI-H23 23.3 µM | NCI-H460 > 100 µM | OVCAR-3 15 µM | OVCAR-5 29.6 µM | PC-3 32.6 µM | RPMI-8226 4 µM | SF-539 43 µM | SNB-75 47.4 µM | SW-620 20.3 µM | TK-10 65.6 µM | UACC-257 15.3 µM | UACC-62 23.4 µM | UO-31 18.2 µM

CC(=O)O[C@H]1CC2C(C3CCC(C(C)CCC(=O)O)[C@]31C)[C@H](OC(C)=O)C[C@@H]1CC3(CC[C@]21C)OOC1(CC[C@]2(C)C4C[C@H](OC(C)=O)[C@]5(C)C(C(C)CCC(=O)O)CCC5C4[C@H](OC(C)=O)C[C@@H]2C1)OO3 (stereo partly drawn)
inactive: 786-0 2.76 µM | CAKI-1 2.19 µM | HOP-62 1.83 µM | LOX IMVI 1.63 µM | MDA-MB-231 2.01 µM | MOLT-4 2.03 µM | NCI-H226 2.04 µM | NCI-H23 1.64 µM | NCI-H460 1.48 µM | OVCAR-3 1.8 µM | OVCAR-5 1.78 µM | PC-3 1.69 µM | RPMI-8226 2.76 µM | SNB-75 1.3 µM | SW-620 3.46 µM | TK-10 2.75 µM | UACC-257 2.15 µM | UO-31 1.74 µM

Cc1cc(C)c2nc3c(c(C(O)C4CCCCN4)c2c1)CC/C3=C\c1ccc(Cl)cc1 (stereo not drawn)
inactive: 786-0 67.8 µM | CAKI-1 94.6 µM | HOP-62 75.9 µM | MDA-MB-231 73.3 µM | MOLT-4 26.7 µM | NCI-H226 > 100 µM | NCI-H23 85.9 µM | NCI-H460 32.6 µM | OVCAR-3 42.1 µM | OVCAR-5 41.1 µM | PC-3 54.1 µM | RPMI-8226 40.7 µM | SF-539 > 100 µM | SNB-75 54 µM | SW-620 55.3 µM | TK-10 > 100 µM | UACC-257 32.8 µM | UACC-62 65 µM
